Reference: US7199129B2, “Derivatives of morphine-like opioid compounds” (Monash University, priority 2001, dated 2007)
Several values for one entry are separate records, joined by “and”; a condition that tells them apart may be missing. Equal values may be shown once. Where a name gives a salt, the structure may show the parent alone.

Experiments:
[1] = test system: ICR mice; experiment: Phenylquinone-induced writhing assay in mice (Example 18); assay type: in vivo; conditions: IP; for Number of Writhings Individual: individual mice
Procedure: Testing on compounds KRS-6-26 and JFY-058 was also carried out under contract by MDS Services—Taiwan Ltd. The study was designed to evaluate the effects of the compounds as analgesics in the phenylquinone-induced writhing assay described in detail in Example 13(Siegmund et al, 1957).
(§1) In each case, a serial 2-fold dosage variance was used in the test, from 128 mg/kg to 1 mg/kg (8 doses in total). Groups of 3 male or female ICR mice weighing 22±2 g were employed. A serial 2-fold dosage variance was used in the test (8 doses in total). Variant doses (1, 2, 4, 8, 16, 32, 64 and 128 mg/kg) of test substances were administered intraperitoneally (IP). A vehicle of 2% Tween 80 in 0.9% NaCl was used for the intraperitoneal injection. The control group received vehicle alone. […] A reduction in the number of writhes by 50 percent or more (≧50%) relative to the vehicle-treated group indicated possible analgesic activity.

[2] = test system: ICR mice; experiment: Straub tail behaviour (indicator of CNS activity) and observed signs in test animals
Description: The Straub test is an indicator of CNS activity.
The tail-flick test is thought to involve central nervous system activity, and therefore provides further confirmation of the Straub tail test.

[3] = biological target: T1, human δ-opiate receptor (Homo sapiens, UniProt P41143); experiment: In vitro opiate receptor radioligand binding assay, δ; conditions: test compound 10 μM; read-out: Percentage inhibition of radioligand binding, δ-opiate receptor
T1 construct: purchased MDS Pharma Services 260110
T1 sequence (P41143 whole entry): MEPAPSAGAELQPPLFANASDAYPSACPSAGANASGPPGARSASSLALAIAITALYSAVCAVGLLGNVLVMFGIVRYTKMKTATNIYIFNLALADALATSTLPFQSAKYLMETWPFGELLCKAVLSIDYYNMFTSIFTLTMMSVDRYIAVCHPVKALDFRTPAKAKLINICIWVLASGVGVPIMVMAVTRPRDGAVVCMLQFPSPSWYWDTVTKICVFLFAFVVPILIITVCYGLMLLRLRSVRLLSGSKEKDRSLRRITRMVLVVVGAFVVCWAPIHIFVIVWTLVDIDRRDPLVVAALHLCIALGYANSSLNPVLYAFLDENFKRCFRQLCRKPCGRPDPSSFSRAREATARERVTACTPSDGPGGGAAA
Procedure: (§2) To characterise the target specificity of the compounds, KRS-5-150 and KRS-6-26 were tested at a concentration of 10 μM for their ability to inhibit the binding of a radioligand to human δ-, κ-, or μ-opiate receptors in vitro using commercially available assays (MDS Pharma Services; assay catalogue numbers 260110, 260210 and 260410 respectively).
(§3) Percentage inhibition of radioligand binding to human opioid receptors in vitro by test compounds (10 μM)

[4] = biological target: T2, human κ-opiate receptor (Homo sapiens, UniProt P41145); experiment: In vitro opiate receptor radioligand binding assay, κ; conditions: test compound 10 μM; read-out: Percentage inhibition of radioligand binding, κ-opiate receptor
T2 construct: purchased MDS Pharma Services 260210
T2 sequence (P41145 whole entry): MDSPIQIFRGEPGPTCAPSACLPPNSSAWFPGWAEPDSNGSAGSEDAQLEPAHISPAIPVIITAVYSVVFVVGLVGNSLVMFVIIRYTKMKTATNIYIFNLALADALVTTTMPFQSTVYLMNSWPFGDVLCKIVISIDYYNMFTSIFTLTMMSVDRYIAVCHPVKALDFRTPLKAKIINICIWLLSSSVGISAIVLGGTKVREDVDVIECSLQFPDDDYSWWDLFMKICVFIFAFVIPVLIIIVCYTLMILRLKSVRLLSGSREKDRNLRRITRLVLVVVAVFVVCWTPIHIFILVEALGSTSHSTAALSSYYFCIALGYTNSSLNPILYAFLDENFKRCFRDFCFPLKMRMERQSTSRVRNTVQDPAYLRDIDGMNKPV
Procedure: as §2, §3

[5] = biological target: T3, human μ-opiate receptor (Homo sapiens, UniProt P35372); experiment: In vitro opiate receptor radioligand binding assay, μ; conditions: test compound 10 μM; read-out: Percentage inhibition of radioligand binding, μ-opiate receptor
T3 construct: purchased MDS Pharma Services 260410
T3 sequence (P35372 whole entry): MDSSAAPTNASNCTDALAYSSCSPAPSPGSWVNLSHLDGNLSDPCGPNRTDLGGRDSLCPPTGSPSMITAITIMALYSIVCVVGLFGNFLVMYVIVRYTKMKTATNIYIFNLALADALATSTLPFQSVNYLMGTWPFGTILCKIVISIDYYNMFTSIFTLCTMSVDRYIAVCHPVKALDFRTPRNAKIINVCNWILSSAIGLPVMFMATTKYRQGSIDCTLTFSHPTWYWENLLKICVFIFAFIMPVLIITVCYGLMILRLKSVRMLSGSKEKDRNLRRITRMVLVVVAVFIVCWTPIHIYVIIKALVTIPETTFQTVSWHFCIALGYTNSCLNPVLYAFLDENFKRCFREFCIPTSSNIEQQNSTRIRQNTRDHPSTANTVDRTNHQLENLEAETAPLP
Procedure: as §2, §3

[6] = test system: ICR mice; experiment: Phenylquinone-induced writhing model in mice (Example 16); assay type: in vivo; conditions: IP, 3 mg/kg, Table 1
Procedure: as §1, with “KRS-5-150 was evaluated for possible analgesic activity in the phenylquinone-induced writhing model in mice (Siegmund et al, 1957). A” for “In each case, a”

[7] = test system: ICR mice; experiment: Radiant heat-induced tail-flick response assay in mice; assay type: in vivo; conditions: IP, 10 mg/kg
Procedure: For the tail-flick assay, groups of four male or female ICR mice weighing 22±2 g were used, and the test compound dissolved in 2% Tween 80/0.9% NaCl was administered intraperitoneally. The compound was administered intraperitoneally at 4, 8, 16 or 32 mg/kg, using 2% Tween 80—0.9% NaCl as the vehicle. Controls received vehicle alone. Morphine-HCl at a dose of 10 mg/kg was used as a positive control. At the pre-treatment point (0 minutes) a focused beam of radiant heat was applied to the middle dorsal surface of the tail to elicit a tail-flick response. […] The time required to elicit a pain response was recorded for each animal at 30 minutes following administration of the test compound. A prolongation of 50% or more ≧50% of the time required to elicit tail-flick response indicated possible analgesic activity.

## Oc1ccc2c3c1OC1C(O)C=CC4C(C2)N(/C(=N/c2ccccc2)Nc2ccccc2)CCC341 (stereo not drawn) [JFY-058, (5α,6α)-7,8-didehydro-4,5-epoxy-17-(N,N′-bisphenylcarboxamidino)morphinan, 3,6-diol]
[1]; 1 mg/kg, Table 5
  % Inhibition: 17%
  Number of Writhings Average: 15
  Number of Writhings Individual: 17 and 19 and 10
[1]; 2 mg/kg, Table 5
  % Inhibition: 33%
  Number of Writhings Average: 12
  Number of Writhings Individual: 15 and 13 and 8
[1]; 4 mg/kg, Table 5
  % Inhibition: 39%
  Number of Writhings Average: 11
  Number of Writhings Individual: 15 and 6 and 11
[1]; 8 mg/kg, Table 5
  % Inhibition: 39%
  Number of Writhings Average: 11
  Number of Writhings Individual: 3 and 15 and 14
[1]; 16 mg/kg, Table 5
  % Inhibition: 78%
  Number of Writhings Average: 4
  Number of Writhings Individual: 2 and 1 and 8
[1]; 32 mg/kg, Table 5
  % Inhibition: 100%
  Number of Writhings Average: 0
  Number of Writhings Individual: 0 (2×) and 1
[1]; 64 mg/kg, Table 5
  % Inhibition: 100%
  Number of Writhings Average: 0
  Number of Writhings Individual: 0
[1]; 128 mg/kg, Table 5
  % Inhibition: 100%
  Number of Writhings Average: 0
  Number of Writhings Individual: 0
[1]; doses of 128, 64, 32 and 16 mg/kg
  analgesic activity (≧50% reduction in writhes): significant activity
[2]; IP, 40 minute observation period after administration, Example 18
  Straub tail behaviour: None of the test animals exhibited Straub tail behaviour

## Cc1ccc(N=C(NCCCN2CC[C@]34c5c6ccc(O)c5O[C@H]3[C@@H](O)C=CC4[C@H]2C6)Nc2ccc(C)cc2)cc1 (stereo partly drawn) [KRS-6-26, (5α,6α)-7,8-didehydro-4,5-epoxy-17-(N,N′-bis-p-tolylcarboxamidino-3-aminopropyl)morphinan-3,6-diol]
[1]; 1 mg/kg, Table 4
  % Inhibition: 50%
  Number of Writhings Average: 6
  Number of Writhings Individual: 0 and 13 and 4
[1]; 2 mg/kg, Table 4
  % Inhibition: 50%
  Number of Writhings Average: 6
  Number of Writhings Individual: 13 and 2 and 4
[1]; 4 mg/kg, Table 4
  % Inhibition: 75%
  Number of Writhings Average: 3
  Number of Writhings Individual: 0 and 7 and 2
[1]; 8 mg/kg, Table 4
  % Inhibition: 92%
  Number of Writhings Average: 1
  Number of Writhings Individual: 1 and 0 and 2
[1]; 16 mg/kg, Table 4
  % Inhibition: 100%
  Number of Writhings Average: 0
  Number of Writhings Individual: 0
[1]; 32 mg/kg, Table 4
  % Inhibition: 100%
  Number of Writhings Average: 0
  Number of Writhings Individual: 0 (2×) and 1
[1]; 64 mg/kg, Table 4
  % Inhibition: 100%
  Number of Writhings Average: 0
  Number of Writhings Individual: 0
[1]; 128 mg/kg, Table 4
  % Inhibition: 100%
  Number of Writhings Average: 0
  Number of Writhings Individual: 0
[1]; doses higher than 8 mg/kg
  inhibition in writhing: 100%
[1]; up to 128 mg/kg
  deaths: no deaths
[3]
  inhibition at 10 µM: 95%
[4]
  inhibition at 10 µM: 94%
[5]
  inhibition at 10 µM: 99%
[2]; IP, 16 mg/kg, Example 18
  test animals exhibiting slight Straub tail behaviour: one
[2]; IP, 128, 64 and 32 mg/kg, Example 18
  test animals exhibiting slight Straub tail behaviour and piloerection: 2 of 3

## CN1CC[C@]23c4c5ccc(O)c4O[C@H]2[C@@H](O)C=C[C@H]3[C@H]1C5 [Morphine.HCl, reference compound]
[6]
  % Inhibition: 100%
[6]; individual mice
  No. of Writhings Individual: 0
[7]; 30 minutes
  % Inhibition (prolongation of tail-flick response time): (100) %
[7]; 30 minutes after administration
  Response Time (Seconds) 30 Mins., Average: 13.6 s
[7]; individual mice, 30 minutes after administration, cut-off 15 seconds
  Response Time (Seconds) 30 Mins.: >15.0 Seconds (3×) and 9.4 Seconds
[7]; individual mice, pre-treatment (0 minutes)
  Response Time (Seconds) 0 Time: 6.3 Seconds (2×) and 6.2 Seconds and 6.5 Seconds
[7]; pre-treatment (0 minutes)
  Response Time (Seconds) 0 Time, Average: 6.3 s
[1]; 3 mg/kg, Table 4
  % Inhibition: 100%
  Number of Writhings Average: 0
  Number of Writhings Individual: 1 and 0 (2×)
[1]; 3 mg/kg, Table 5
  % Inhibition: 100%
  Number of Writhings Average: 0
  Number of Writhings Individual: 0
[2]; 3 mg/kg, Example 16
  test animals exhibiting the Straub tail phenomenon: 1 of 3
[2]; 3 mg/kg, Example 18
  test animals with slight Straub tail phenomenon: 2 of 3

## (5α,6α)-7,8-didehydro-4,5-epoxy-17-(N,N′-bis-p-tolylcarboxamidino-3-aminopropyl)morphinan-3,6-diol [KRS-6-26]
[1]; doses of 128, 64, 32, 16, 8, 4, 2 and 1 mg/kg
  analgesic activity (≧50% reduction in writhes): significant activity
